Measured values reported in article PMC11532403 (Signal Transduction and Targeted Therapy, 2024).
“And” between values parts separate entries of the source, which are not always exact repeats. Equal values may be shown once.

Test system: RET-altered solid tumors
Experiment: Phase 1 trial: anti-tumor efficacy (RECIST 1.1)
Type: in vivo, human
Settings: for PFS Follow-up (m) / PFS: Type of event: individual patients; for Best overall response: Partial response / Best overall response: Progressive disease / Best overall response: Stable disease / DCR, % (95% CI) / Median DoR, months (95% CI) / Median PFS, months (95% CI) / Median TTR, months (95% CI) / ORR, % (95% CI): patients with detectable RET variations
Procedure: Radiologic tumor assessments were conducted by computed tomography (CT) or magnetic resonance imaging (MRI) of brain, chest, abdomen, and pelvis at baseline, 4 weeks for the first tumor assessment, then every 8 weeks (± 7 days) for 1 year, and every 12 weeks (± 7 days) thereafter. MTC patients were longitudinally monitored for serum calcitonin and carcinoembryonic antigen (CEA) levels.

[1] = RP2D, PTC, treatment-naïve (n = 1)
[2] = Treatment-naïve, 40 mg BID (n = 1)
[3] = Treatment-naïve, 160 mg BID (n = 37)
[4] = Treatment-naïve, 200 mg BID (n = 2)
[5] = Treatment-naïve, all doses (n = 40)
[6] = baseline ctDNA detectable RET alterations (n = 61)
[7] = baseline ctDNA undetectable RET alterations (n = 53)
[8] = ctDNA analysis, all patients (n = 114)

COc1ccc(CN2C3CC2CN(c2ccc(-c4cc(N5CC(C)(O)C5)cn5ncc(C#N)c45)cn2)C3)cn1 [SY-5007, 6-(3-hydroxy-3-methylazetidin-1-yl)-4-(6-(6-((6-methoxypyridin-3-yl)methyl)-3,6-diazabicyclo[3.1.1]heptan-3-yl)pyridin-3-yl)pyrazolo[1,5-a]pyridine-3-carbonitrile]
ORR (95% CI) [1]: 0 (0.0-97.5) % | Partial response [1]: 0 (0.0) n (%) | Progressive disease [1]: 0 (0.0) n (%) | Stable disease [1]: 1 (100.0) n (%) | Median PFS (95% CI) [2]: 1.67 (NE-NE) months | ORR (95% CI) [2]: 0 (0.0–97.5) % | Partial response [2]: 0 (0.0) n (%) | Progressive disease [2]: 0 (0.0) n (%) | Stable disease [2]: 1 (100.0) n (%) | DCR (95% CI) (Treatment-naïve, 40 mg BID (n = 1), 40 mg twice daily): 100.0 (2.5–100.0) % | DCR (95% CI) [3]: 94.6 (81.8–99.3) % | Median DoR (95% CI) [3]: 14.5 (9.26-NE) months | Median PFS (95% CI) [3]: 15.5 (9.23-NE) months | Median TTR (95% CI) [3]: 2.75 (0.98–2.89) months | ORR (95% CI) [3]: 70.3 (53.0–84.1) % | Partial response [3]: 26 (70.3) n (%) | Progressive disease [3]: 2 (5.4) n (%) | Stable disease [3]: 9 (24.3) n (%) | DCR (95% CI) [4]: 100.0 (15.8–100.0) % | Median DoR (95% CI) [4]: 5.32 (5.06-NE) months | Median PFS (95% CI) [4]: 6.22 (5.98-NE) months | Median TTR (95% CI) [4]: 0.93 (0.91-NE) months | ORR (95% CI) [4]: 100.0 (15.8–100.0) % | Partial response [4]: 2 (100.0) n (%) | Progressive disease [4]: 0 (0.0) n (%) | Stable disease [4]: 0 (0.0) n (%) | DCR (95% CI) [5]: 95.0 (83.1–99.4) % | Median DoR (95% CI) [5]: 14.5 (6.47–NE) months | Median PFS (95% CI) [5]: 15.5 (9.23–NE) months | Median TTR (95% CI) [5]: 2.75 (0.95–2.89) months | ORR (95% CI) [5]: 70.0 (53.5–83.4) % | Partial response [5]: 28 (70.0) n (%) | Progressive disease [5]: 2 (5.0) n (%) | Stable disease [5]: 10 (25.0) n (%) | Estimated 6-month PFS rate (all patients): 86.1% | Estimated 12-month PFS rate (all patients): 68.9% | Patients with progression events or death (all patients in phase 1): 29 (23.8%) n (%) | DCR (95% CI) [6]: 96.7 (88.7-99.6) % | Median DoR (95% CI) [6]: 13.0 (9.23-19.9) months | Median PFS (95% CI) [6]: 13.8 (10.0-15.5) months | Median TTR (95% CI) [6]: 2.79 (1.01-6.73) months | ORR (95% CI) [6]: 57.4 (44.1-70.0) % | Partial response [6]: 35 (57.4) n (%) | Progressive disease [6]: 2 (3.3) n (%) | Stable disease [6]: 24 (39.3) n (%) | DCR (95% CI) [7]: 94.3 (84.3-98.8) % | Median TTR (95% CI) [7]: 3.15 (2.75-6.30) months | ORR (95% CI) [7]: 60.4 (46.0-73.5) % | Partial response [7]: 32 (60.4) n (%) | Progressive disease [7]: 3 (5.7) n (%) | Stable disease [7]: 18 (34.0) n (%) | DCR (95% CI) [8]: 95.6 (90.1-98.6) % | Median DoR (95% CI) [8]: 19.9 (12.8-NE) months | Median PFS (95% CI) [8]: 21.1 (13.8-NE) months | Median TTR (95% CI) [8]: 2.79 (2.75-4.66) months | ORR (95% CI) [8]: 58.8 (49.2-67.9) % | Partial response [8]: 67 (58.8) n (%) | Progressive disease [8]: 5 (4.4) n (%) | Stable disease [8]: 42 (36.8) n (%) | ORR (ctDNA-detectable KIF5B-RET (27/46)): 58.7% | ORR (ctDNA-detectable RET mutations (3/9)): 33.3% | ORR (ctDNA-detectable other RET fusions (5/7)): 71.4% | Median PFS (detectable RET, concomitant TP53 mutation): 10.1 months | ORR (detectable RET, concomitant TP53 mutation (11/22)): 50.0% | Median PFS (detectable RET, without TP53 mutation): 15.4 months | ORR (detectable RET, without TP53 mutation (24/39)): 61.5% | ORR (dose-escalation phase (9/17)): 52.9% | DCR (dose-escalation phase (16/17)): 94.1% | ORR (dose-expansion phase (58/99)): 58.6% | DCR (dose-expansion phase (95/99)): 96.0% | 1-year DoR rate (in vivo): 74.1% | PFS Follow-up (m) (GC, 160mg BID): 1.02 m | PFS: Type of event (GC, 160mg BID): Censoring | PFS Follow-up (m) (MTC, 160mg BID): 5.75 m and 0.99 m and 2.76 m and 2.66 m and 6.41 m and 4.60 m and 0.85 m and 0.92 m and 14.72 m and 6.44 m and 11.96 m and 6.51 m and 13.90 m and 8.41 m and 4.57 m and 8.51 m and 6.60 m and 2.86 m and 8.38 m | PFS: Type of event (MTC, 160mg BID): Censoring | PFS Follow-up (m) (NSCLC, 20mg BID): 27.14 m | PFS Follow-up (m) (NSCLC, 20mg QD): 4.83 m | PFS: Type of event (NSCLC, 20mg QD): Censoring | PFS Follow-up (m) (NSCLC, 40mg BID): 25.07 m and 10.29 m and 1.68 m | PFS: Type of event (NSCLC, 40mg BID): Censoring | PFS Follow-up (m) (NSCLC, 80mg BID): 23.30 m and 6.64 m and 23.23 m | PFS: Type of event (NSCLC, 80mg BID): Censoring | PFS Follow-up (m) (NSCLC, 120mg BID): 21.39 m and 21.42 m and 21.13 m | PFS: Type of event (NSCLC, 120mg BID): Censoring | PFS Follow-up (m) (NSCLC, 200mg BID): 11.99 m and 11.96 m and 5.98 m and 5.75 m and 17.74 m and 3.15 m and 6.47 m and 12.16 m and 0.89 m | PFS: Type of event (NSCLC, 200mg BID): Censoring | PFS Follow-up (m) (PTC, 160mg BID): 8.35 m and 2.79 m and 8.38 m and 8.48 m and 6.67 m and 2.89 m and 2.92 m | ORR (non-clearance or unknown RET alterations at Cycle 1 Day 28 (16/42)): 38.1% | Best overall response: Partial response (TP53 mutant, n=22): 11 (50.0) | Best overall response: Progressive disease (TP53 mutant, n=22): 0 (0.0) | Best overall response: Stable disease (TP53 mutant, n=22): 11 (50.0) | DCR, % (95% CI) (TP53 mutant, n=22): 100.0 (84.6-100.0) % | Median DoR, months (95% CI) (TP53 mutant, n=22): 13.0 (2.82-NE) months | Median PFS, months (95% CI) (TP53 mutant, n=22): 10.1 (6.21-NE) months | Median TTR, months (95% CI) (TP53 mutant, n=22): 2.89 (0.95-NE) months | ORR, % (95% CI) (TP53 mutant, n=22): 50.0 (28.2-71.8) % | Best overall response: Partial response (TP53 wild-type, n=39): 24 (61.5) | Best overall response: Progressive disease (TP53 wild-type, n=39): 2 (5.1) | Best overall response: Stable disease (TP53 wild-type, n=39): 13 (33.3) | DCR, % (95% CI) (TP53 wild-type, n=39): 94.9 (82.7-99.4) % | Median DoR, months (95% CI) (TP53 wild-type, n=39): 19.9 (6.47-NE) months | Median PFS, months (95% CI) (TP53 wild-type, n=39): 15.4 (9.23-NE) months | Median TTR, months (95% CI) (TP53 wild-type, n=39): 2.79 (0.98-6.73) months | ORR, % (95% CI) (TP53 wild-type, n=39): 61.5 (44.6-76.6) % | Best overall response: Partial response (all patients, n=61): 35 (57.4) | Best overall response: Progressive disease (all patients, n=61): 2 (3.3) | Best overall response: Stable disease (all patients, n=61): 24 (39.3) | DCR, % (95% CI) (all patients, n=61): 96.7 (88.7-99.6) % | Median DoR, months (95% CI) (all patients, n=61): 13.0 (9.23-19.9) months | Median PFS, months (95% CI) (all patients, n=61): 13.8 (10.0-15.5) months | Median TTR, months (95% CI) (all patients, n=61): 2.79 (1.01-6.73) months | ORR, % (95% CI) (all patients, n=61): 57.4 (44.1-70.0) % | ORR (patients with rapid ctDNA clearance of RET alteration): 100% | Median TTR (patients with rapid ctDNA decline/clearance of RET alteration): 0.91 months
